The experiment relates to AMPA receptors (rat cerebral cortex poly(A+) mRNA expressed in Xenopus oocytes). The experiment is described as follows: Excitatory currents induced by AMPA in Xenopus oocytes (two-electrode voltage-clamp). The note with it: (S)-AMPA 10 μM; Xenopus oocytes injected with rat cortex mRNA; 20-24° C. The experiment is classed as cell-based. The method, then:
Study of the Excitatory Currents Induced by AMPA in Xenopus Oocytes
mRNA's are prepared from cerebral cortex of male Wistar rats by the guanidinium thiocyanate/phenol/chloroform method. The poly (A^+) mRNA's are isolated by chromatography on oligo-dT cellulose and injected at a level of 50 ng per oocyte. The oocytes are incubated for 2 to 3 days at 18° C. to permit expression of the receptors and are then stored at 8-10° C.
Electrophysiological recording is carried out in a Plexiglass® chamber at 20-24° C. in OR2 medium (J. Exp. Zool., 1973, 184, 321-334) by the “voltage-clamp” method using two electrodes, a third electrode being placed in the bath serving as reference.
All the compounds are applied via the incubation medium and the electric current is measured at the end of the application period. (S)-AMPA is used in a concentration of 10 μM. For each compound studied, the concentration that doubles (EC2X) or quintuples (EC5X) the intensity of the current induced by AMPA alone (5 to 50 nA) is determined.
The compounds of the invention potentiate the excitatory effects induced by (S)-AMPA to a very considerable degree.
(In general: Two-electrode voltage clamp holds a large cell at a set potential and records current.)

Experimental findings from patent US7476668B2, “Thiadiazine derivatives and use thereof as positive AMPA receptor modulators” (Les Laboratoires Servier, priority 2003, dated 2009) are described below.

The structures appear in SMILES notation.

As for `CC(C)N1CNS(=O)(=O)c2sc(Cl)cc21` [Example 4, 6-Chloro-4-isopropyl-3,4-dihydro-2H-thieno[3,2-e][1,2,4]thiadiazine 1,1-dioxide], the “EC2X (concentration that doubles the intensity of the current induced by AMPA alone)” value turned out to be 4.2 ± 0.7 µM and the “EC5X (concentration that quintuples the intensity of the current induced by AMPA alone)” value was 11 ± 3 µM.

As for `CN1CNS(=O)(=O)c2c(Cl)sc(Cl)c21` [Example 6, 5,7-Dichloro-4-methyl-3,4-dihydro-2H-thieno[3,4-e][1,2,4]thiadiazine 1,1-dioxide], the “EC2X (concentration that doubles the intensity of the current induced by AMPA alone)” value is 5.4 ± 2.8 µM and the “EC5X (concentration that quintuples the intensity of the current induced by AMPA alone)” value was 11.3 ± 4.9 µM.
